The record followed here is patent publication US20260109712A1, “RIFAMYCINS FOR NONTUBERCULOUS MYCOBACTERIA” (priority 2022, published 2026).

The subject of one series is M. fortuitum ATCC 6841. In words: MIC, anti-mycobacterial profiling. The class given is cell-based, Mycobacterium fortuitum. As to conditions: mean of two experiments.
The next series concerns M. xenopi ATCC 19250. The series can be described thus: MIC, anti-mycobacterial profiling. The class given is cell-based, Mycobacterium xenopi. Conditions: mean of two experiments.
The test system of a further series is M. abscessus ATCC 19977. In words: MIC assay in 96-well plate format, wild-type strain. Conditions: for MICWT: Table 10. The class given is cell-based, Mycobacterium abscessus. In a few lines: (§1)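 Two-fold, ten-point dilutions in 7H9 with 2% DMSO; mid-log culture diluted to OD600=0.1 (1×10^7 CFU/mL). Incubated 3 days at 37 °C, shaking 110 RPM; growth = Day 3 minus Day 0 OD600, expressed as percentage of drug-free growth and plotted against concentration. Two biological replicates.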

A further series deals with M. chelonae ATCC 35752. The series can be described thus: MIC, anti-mycobacterial profiling. The series is classed as cell-based, Mycobacterium chelonae. Conditions: mean of two experiments.
A further series concerns M. chimaera CCUG 50989T. The series can be described thus: MIC, anti-mycobacterial profiling. As to conditions: mean of two experiments. The class given is cell-based, Mycobacterium chimaera.
Another series deals with M. kansasii ATCC 12478. The series can be described thus: MIC, anti-mycobacterial profiling. The series is classed as cell-based, Mycobacterium kansasii. Conditions: mean of two experiments.
In series [1] the test system is M. intracellulare ATCC 13950. In words: MIC, anti-mycobacterial profiling. As to conditions: mean of two experiments. The series is classed as cell-based, Mycobacterium intracellulare.
Series [2] relates to M. avium subsp. hominisuis MAC109. The series can be described thus: MIC, anti-mycobacterial profiling. The class given is cell-based, Mycobacterium avium. As to conditions: mean of two experiments.
For the next series, the system named is M. szulgai ATCC 35799. The series can be described thus: MIC, anti-mycobacterial profiling. The series is classed as cell-based, Mycobacterium szulgai. Conditions: mean of two experiments.
A further series concerns M. simiae ATCC 25275. In words: MIC, anti-mycobacterial profiling. The class given is cell-based, Mycobacterium simiae. Conditions: mean of two experiments.
In series [3] the test system is M. abscessus subsp. bolletii CCUG 50184T. In words: MIC, anti-mycobacterial profiling. The class given is cell-based, Mycobacterium abscessus. Conditions: mean of two experiments. As to the method: (§2) MIC determination was carried out in 96-well plate format as previously described.^[13-14] 96-well plates were initially set up with 100 μL of 7H9 per well. For each compound, a ten-point two-fold dilution series starting at twice the desired highest concentration was dispensed onto the 96-well plates using a Tecan D300e Digital Dispenser, with the DMSO concentration normalized to 2%. M. abscessus culture grown to mid-log phase (OD600=0.4-0.6) was diluted to OD600=0.1 (1×10^7 CFU/mL). 100 μL of the resulting bacteria suspension was dispensed onto the 96-well plates containing compounds to give a final volume of 200 μL per well with an initial OD600=0.05 (5×10^6 CFU/mL) and final DMSO concentration of 1%. Final compound concentration ranges were typically 50-0.098 μM, 6.25-0.012 μM, 0.006-3.13 μM, or 0.003-1.56 μM. Untreated control wells are included on each plate that contain bacteria suspension and 1% DMSO. Plates were sealed with parafilm, stored in boxes with wet paper towels and incubated at 37° C. with shaking (110 RPM). Plates were incubated for 3 days. To determine growth, OD600 was measured using a Tecan Infinite M200 plate reader on Day 0 and Day 3. Two biological replicates were performed. Clarithromycin was included in each experiment as a positive control.
(§3) For each well on the 96-well plate, bacterial growth was calculated by subtracting the Day 0 OD600 value from the Day 3 OD600 value. For each compound series, the bacterial growth values for the untreated control wells were averaged to give the average drug-free bacterial growth. For compound-containing wells, percentage growth was calculated by dividing their growth values by the average drug-free bacterial growth for the compound series and multiplying by 100. For each compound series, we plotted percentage growth versus compound concentration. By visual inspection of the dose-response curve, we determined the MIC of a compound as the compound concentrations that would result in 90% growth inhibition.
(§4) The MIC data was determined using methods disclosed in Example 1.

In series [4] the test system is M. abscessus subsp. massiliense CCUG 48898T. The series can be described thus: MIC, anti-mycobacterial profiling. As to conditions: mean of two experiments. The series is classed as cell-based, Mycobacterium abscessus. As to the method:
as §2, §3, §4

In the next series the test system is Δarr M. abscessus. The series can be described thus: MIC assay, isogenic arr-deleted strain. Conditions: for MICΔorr: Table 10. The class given is cell-based, Mycobacterium abscessus. In a few lines: as §1
The test system of another series is CYP3A4. As to conditions: human, 10 μM.
Series [5] can be described thus: Plasma protein binding assay (rapid equilibrium dialysis). The class given is in vitro ADME. Conditions: plasma. In a few lines: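 Plasma was spiked to 10,000 ng/mL compound and dialysed against PBS by rapid equilibrium dialysis for 4 h at 37° C with shaking at 300 RPM. Plasma and buffer aliquots were matrix-matched 1:1 […] and quantified by LC-MS/MS.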

Another series deals with Mycobacterium abscessus. In words: MIC against Mycobacterium abscessus (strain not given). The class given is cell-based.
For another series, the system named is Mab ATCC 19977 (Smooth). In words: Acute Mab mouse infection model (GM-CSF knockout mice). The series is classed as in vivo. Conditions: 25 mg/kg every day for 7 days. On the procedure: In vivo efficacy of compounds UMN22 and UMN34 were evaluated in acute Mab mouse infection model.
Series [6] can be described thus: Mouse pharmacokinetics studies. The class given is in vivo, CD-1 mice. Conditions: for ƒAUC/MIC: Table 20; for F / Vd / clearance: female, CD-1, mouse, in vivo. In short, it runs like this:
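Plasma from K2EDTA-collected blood analysed by LC-MS/MS with multiple-reaction monitoring in electrospray positive mode. Parameters derived by non-compartmental analysis.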

The test system of the next series is THP-1. The series can be described thus: Fold-killing in THP-1. The class given is cell-based. Conditions: expressed in log-10 scale.
The test system of a further series is RFB-R1 M. abscessus. In words: microbe, parasite or virus in culture. Conditions: Mycobacteroides abscessus, read-out: RFB-R1 M. abscessus MIC. The series is classed as cell-based, Mycobacterium abscessus.
The mark [7] stands for this setting: Mycobacteroides abscessus, 72 h, Table 22, read-out: MICMab.
The mark [8] stands for this setting: Mycobacteroides abscessus, against Mycobacterium abscessus, Table 19, read-out: MIC.
[9] abbreviates: against Mycobacterium abscessus, Table 20, read-out: MIC.

For orientation: Vd means a proportionality between amount in the body and measured concentration, not a real space. Higher therefore signals extensive tissue distribution. The term clearance denotes a measure of how efficiently the substance is removed, as volume per time. Lower therefore signals inefficient removal.

Values after ≈ are worked out from the molar mass of the structure shown. Where two headings read alike, the source gives them in different places. Where only a bound is given, the exact number is not on record here.

With `CO[C@H]1/C=C/O[C@@]2(C)Oc3c(C)c(O)c4c(O)c(c(/C=N/N5CCN(C)CC5)c(O)c4c3C2=O)NC(=O)/C(C)=C\C=C\[C@H](C)[C@H](O)[C@@H](C)[C@@H](O)[C@@H](C)[C@H](OC(C)=O)[C@@H]1C` [RIF], the MIC with M. fortuitum ATCC 6841 is listed as 6.7 µM (≈ 5.51 µg/mL); against M. xenopi ATCC 19250, 0.04 µM (≈ 0.0329 µg/mL); with M. abscessus ATCC 19977 (M. abscessus subsp. abscessus ATCC 19977, mean of two experiments, read-out: MIC) it was 9.5 µM (≈ 7.82 µg/mL); with M. chelonae ATCC 35752, 1.4 µM (≈ 1.15 µg/mL); with M. chimaera CCUG 50989T, 0.07 µM (≈ 0.0576 µg/mL); in the series with M. kansasii ATCC 12478 it was 0.3 µM (≈ 0.247 µg/mL). The MIC in [1] was 0.06 µM (≈ 0.0494 µg/mL); in series [2], 0.04 µM (≈ 0.0329 µg/mL); against M. szulgai ATCC 35799, 0.06 µM (≈ 0.0494 µg/mL); against M. simiae ATCC 25275, above 100 µM; in series [3], 28 µM (≈ 23 µg/mL); in series [4], 13 µM (≈ 10.7 µg/mL).
In turn, `CO[C@H]1/C=C/O[C@@]2(C)Oc3c(C)c(O)c4c(c3C2=O)C2=NC3(CCN(CC(C)C)CC3)NC2=C(NC(=O)/C(C)=C/C=C/[C@H](C)[C@H](O)[C@@H](C)[C@@H](O)[C@@H](C)[C@H](OC(=O)c2cccnc2)[C@@H]1C)C4=O` [UMN22] came in with an MICWT against M. abscessus ATCC 19977 of 0.025 µM. Moreover, the MICΔorr in the series on Δarr M. abscessus came to 0.027 µM. Moreover, in the series with CYP3A4, the “CYP3A4 gene fold-induction at 10 μM” value was 14.1. For the same compound, in [5] (4 h, 10000 ng/mL), the “plasma unbound (ƒu, %)” value is 2.0%. Moreover, the MIC with Mycobacterium abscessus (setting [7]) was determined as 0.025 µM (≈ 0.0228 µg/mL). In addition, the MIC with Mycobacterium abscessus (setting [8]) was found to be 0.025 µM (≈ 0.0228 µg/mL). Besides, the MIC with Mycobacterium abscessus (setting [9]) amounted to 0.025 µM (≈ 0.0228 µg/mL). For the same compound, the “reduction in lung CFU burden vs RFB and untreated groups” value in the series with Mab ATCC 19977 (Smooth) is given as around 2 log10. Also, in series [6], the ƒAUC/MIC is 45.0, the F is 78%, the Vd worked out at 1.6 L/kg and the clearance stood at 3 mL/min/kg. The “Fold-killing in THP-1” value in the series on THP-1 was found to be 3.8.
In turn, `COc1ccccc1NC(=O)O[C@H]1[C@H](C)[C@H](O)[C@H](C)[C@@H](O)[C@@H](C)/C=C/C=C(\C)C(=O)NC2=C3NC4(CCN(CC(C)C)CC4)N=C3c3c(c(O)c(C)c4c3C(=O)[C@@](C)(O/C=C/[C@H](OC)[C@H]1C)O4)C2=O` [UMN34] returned an MICWT in the series with M. abscessus ATCC 19977 of 0.015 µM. The MICΔorr with Δarr M. abscessus was 0.014 µM. Also, in series [5], the “plasma unbound (ƒu, %)” value is recorded as 0.12% and the plasma unbound fraction is on record as 0.12%. In addition, in the series on Mycobacterium abscessus (setting [9]), the MIC came to 0.015 µM (≈ 0.0143 µg/mL). For the same compound, the “reduction in lung CFU burden vs RFB and untreated groups” value in the series with Mab ATCC 19977 (Smooth) is recorded as around 2 log10. Also, the ƒAUC/MIC in series [6] was determined as 0.9. In addition, the “Fold-killing in THP-1” value with THP-1 worked out at 4.9.
For the compound `CO[C@H]1/C=C/O[C@@]2(C)Oc3c(C)c(O)c4c(c3C2=O)C2=NC3(CCN(CC(C)C)CC3)NC2=C(NC(=O)/C(C)=C/C=C/[C@H](C)[C@H](O)[C@@H](C)[C@@H](O)[C@@H](C)[C@H](OC(=O)c2cncnc2)[C@@H]1C)C4=O` [UMN46], the MICWT in the series with M. abscessus ATCC 19977 stood at 0.018 µM. For the same compound, in the series with Δarr M. abscessus, the MICΔorr is 0.025 µM. Besides, the “CYP3A4 gene fold-induction at 10 μM” value in the series with CYP3A4 is 7.9. Moreover, in [5] (4 h, 10000 ng/mL), the “plasma unbound (ƒu, %)” value is recorded as 4.7%. The MIC in the series with Mycobacterium abscessus (setting [7]) stood at 0.018 µM (≈ 0.0164 µg/mL). Further, in the series with Mycobacterium abscessus (setting [8]), the MIC stood at 0.018 µM (≈ 0.0164 µg/mL). Besides, the MIC in the series with Mycobacterium abscessus (setting [9]) came to 0.018 µM (≈ 0.0164 µg/mL). In series [6], this compound yielded a ƒAUC/MIC of 87.8, an F of 86%, a Vd of 2.1 L/kg and a clearance of 4 mL/min/kg. Moreover, the “Fold-killing in THP-1” value in the series with THP-1 is listed as 4.4.
`CO[C@H]1/C=C/O[C@@]2(C)Oc3c(C)c(O)c4c(O)c(c(/C=N/N5CCN(C)CC5)c(O)c4c3C2=O)NC(=O)/C(C)=C\C=C\[C@H](C)[C@H](O)[C@@H](C)[C@@H](O)[C@@H](C)[C@H](OC(C)=O)[C@@H]1C` [rifampicin, reference compound]: the MIC in the series with RFB-R1 M. abscessus is above 100 µM; in the series on M. abscessus ATCC 19977 (Mycobacteroides abscessus, ATCC19977, read-out: WT Mab MIC), 5.3 µM (≈ 4.36 µg/mL); in the series with Mycobacterium abscessus (setting [7]) it was 5.3 µM (≈ 4.36 µg/mL). For the same compound, in the series on Δarr M. abscessus (arr-deleted strain, 90% growth inhibition), the “Δarr Mab MIC” value came out at 0.26 µM.
